Where two headings read alike, the source gives them in different places.
What was measured:
Alpha 1A = molecular target: T1, Alpha 1A (Homo sapiens, UniProt P35348); assay: Cerep panel, Alpha 1A (antagonist); format: cell-based; conditions: read-out: IC50 Alpha 1A (antg)
T1 construct: Eurofins Cerep
Text: (§1) Based on the homology of the ligand binding domains, 3 different isoforms of ROR (hRORα, hRORβ and hRORγ) are reported. Small variations in the LBD regions possibly lead to differences in competitive binding between the nuclear receptors of the ROR isoforms (Fig. 1b). Similar to the assessment of RORγ binding assay, TR-FRET binding assays were also used to assess the affinity of PCCR-1 for other ROR isoforms. […] This was reconfirmed in cellular functional assays for the selected isoforms and nuclear receptors using Gal4 DBD with luciferase reporter system from Indigo (PA, USA). […] In addition, both cellular agonist and antagonist effects as well as for enzyme activity were evaluated with a known reference compound for each target, using a radiolabeled method (Eurofins Cerep, France, Table 1).

RORα = RORα (Homo sapiens, UniProt P35398); assay: Transactivation assay, Gal4 DBD luciferase reporter (Indigo); format: cell-based
Text: as §1

IL-22 in hPBMCs = assay: IL-22 release, human PBMC, TCR activating conditions; format: cell-based; conditions: read-out: hIL-22 IC50
Experimental: An increase in the levels of Th17 dependent cytokine in the peripheral blood of COPD patients as compared to the Th1 and Th2 dependent cytokines has been well documented in a subset of COPD patients. A comparative study was performed under TCR activating conditions to evaluate the potencies of PCCR-1 for inhibition across Th1, Th2 and Th17 dependent cytokines using hPBMCs.
Human whole blood from healthy subjects were procured from Clinical Research Unit, Sanpada. Clinical Research Center Glenmark (Plot No. D, 508, Turbhe, TTC Industrial Area, MIDC, Sanpada, Navi Mumbai, Maharashtra 400705, India). PBMCs were isolated using heparinized blood with Ficoll Histopaque. Briefly, the cells were seeded in 96-well plate pre-coated with human anti-CD3 mAb (10 µg/mL), post 30 min of compound treatment cells were stimulated with human anti-CD28 mAb (2 µg/mL). After 72 h of culture, the supernatant was collected for Th1/Th2 cytokines; IFN-γ, IL-2, IL-4 and IL-10 and measured by ELISA. For Th17 polarization assay, the following cytokine cocktail was used: IL-1β (10 ng/ml), IL-23(10 ng/ml), IL-6 (50 ng/ml), TGF-β1 (3 ng/ml), IL-2 (20U/ml) and supernatants were used for measuring IL-17 and IL-22 by ELISA.

mouse RORγ = system: T2, mouse RORγ; assay: Dissociation assay, jump dilution method (TR-FRET), mouse; format: binding
T2 construct: RORγt-LBD region 264-516aa; made in house
Experimental: To understand the inverse agonist behavior at the molecular level, interaction with the nuclear receptor RORγ was analyzed in binding assays by estimating its dissociation constant (Koff) and half-life (t1/2). The binding of a ligand stabilizes the conformation of the LBD while binding of a cofactor modifies receptor activity. Binding reversibility was evaluated by adding an excess of competing ligand in the FRET assay and evaluating the displacement of the tracer with inhibitor. Binding of the PCCR-1 with the LBD caused reduction in FRET on antibody addition forming a GST (Glutathione S-transferases) tagged RORγ-antibody complex. The dissociation assay was performed using the jump dilution method with PCCR-1 at a concentration showing maximum binding potency or IC90. The dissociation was tested on addition of an excess of a competitive ligand, the tracer.

[1] = system: IL-17 release from COPD patient PBMCs; assay: IL-17 release, PBMC from COPD patients; format: cell-based; conditions: Homo sapiens, TCR stimulated, n = 16, read-out: IL-17 IC50, COPD patient's sample: PBMC
Experimental: Whole blood and BAL samples from COPD patients were obtained from Multispecialty hospital, Mumbai post approval from ethics committee and informed consent of patients. 30–40 mL Broncho alveolar lavage (BALf) was collected per patient and stored in ice. Blood was collected in heparin vaccutainer as per approved protocol. Both the samples were processed within 2 h of collection. BALF was passed through 100-µm and 40-µm cell strainer to remove debris and mucus, the samples were centrifuged and the cells were re-suspended in RPMI 1640 complete medium. PBMCs from blood were isolated using Histopaque-1077 by density gradient centrifugation. Isolated BAL cells and PBMCs were seeded in 96 well coated with 10 µg/ml anti-CD3 and 2 µg/ml anti-CD2. Cells were further treated with different concentration of test compound for 60 min followed by stimulation with 20 µg/ml anti-CD28 and incubated for 48–72 h. The supernatant was used for estimating IL-17 by ELISA.

RXR = assay: TR-FRET selectivity binding assay, RXR
Text: as §1
For selectivity, the ROR isoforms RORα, FXR, LXRα, LXRβ, RXR, RARα were incubated with compound for 60 min at 22 °C followed by detection mix containing respective agonist (All trans retinoic acid for RARα, T0901317 for LXRα, LXRβ, 9-cis Retinoic acid for RXR, GW-4064 for FXR) and coactivator peptide (FD22 for RORα, PGC1α for RXR, RARα, TRAP220 for LXRα, LXRβ, SRC2-2 for FXR) and Tb-anti GST antibody prepared in assay buffer were added into a 384-well white plate. Reading taken after overnight incubation and the data analysis done as per the protocol mentioned in RORγt-LBD and co-activator ligand binding assay.

[2] = Drug concentrations on day-8 in CS-model mice after 7-day intranasal treatment; format: in vivo; conditions: C57BL/6, mouse, other: intranasal; for concentration at 1 h: CS exposed mice
Experimental: Additionally, after 7-day intranasal treatment with PCCR-1 in the CS-model in mice as described above, blood, BAL fluid and lung tissues were collected on day-8 approximately 1 h after the last treatment dose for estimating the drug concentrations for PK-PD correlation.

Sequence of RORα (P35398 272-523 limits assumed): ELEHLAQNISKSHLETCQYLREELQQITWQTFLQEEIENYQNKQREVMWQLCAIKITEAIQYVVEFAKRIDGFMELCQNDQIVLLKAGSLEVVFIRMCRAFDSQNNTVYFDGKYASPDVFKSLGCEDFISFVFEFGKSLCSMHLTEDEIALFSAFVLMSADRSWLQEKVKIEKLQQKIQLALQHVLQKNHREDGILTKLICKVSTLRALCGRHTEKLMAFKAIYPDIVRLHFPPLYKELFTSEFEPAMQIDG
T1 sequence (P35348 whole entry): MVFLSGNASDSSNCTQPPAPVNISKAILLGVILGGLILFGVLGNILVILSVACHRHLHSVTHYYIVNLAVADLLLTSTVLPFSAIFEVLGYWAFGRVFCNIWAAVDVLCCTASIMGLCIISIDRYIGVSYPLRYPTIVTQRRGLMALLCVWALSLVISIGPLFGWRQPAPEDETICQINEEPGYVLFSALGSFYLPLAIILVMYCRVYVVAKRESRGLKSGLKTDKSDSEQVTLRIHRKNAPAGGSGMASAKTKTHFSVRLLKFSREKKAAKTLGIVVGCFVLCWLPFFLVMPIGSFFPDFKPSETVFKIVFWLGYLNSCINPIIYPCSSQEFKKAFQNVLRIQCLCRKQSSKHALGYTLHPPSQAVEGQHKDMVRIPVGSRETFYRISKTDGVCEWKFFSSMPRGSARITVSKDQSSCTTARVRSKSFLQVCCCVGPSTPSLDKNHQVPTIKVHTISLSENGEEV

In the case of CCn1c(C(C)(C)Oc2ccc(F)cc2F)nc2cc(NC(=O)Cc3ccc(S(=O)(=O)CC)cc3)ccc21 [PCCR-1], the IC50 (Alpha 1A) is reported as 190 nM, the “effect in transactivation assays for RORα inhibition” value (RORα) is reported as “no effect” and the IC50 (IL-22 in hPBMCs) is reported as 297 nM. The “dissociation from the target protein” value (mouse RORγ; mouse RORγ, jump dilution) was 20–25%, the “t1/2 (target residence time)” value (mouse RORγ; mouse RORγ, jump dilution, PCCR-1 at IC90) was 4.69 h and the absolute dissociation (mouse RORγ; mouse, till 3 h of measurement) was 50%. The IC50 [1] was 336 nM, the “% Inhibition RXR” value (RXR; 1 µM) was 0.00% and the “% Inhibition RXR” value (RXR; 10 µM) was 8.24%. The “Fold over hRORγ, RXR” value (RXR; vs RORg IC50 31.87 nM) was over 313.7 fold, the concentration at 1 h ([2]; BAL fluid, day-8, intranasal 1 µg/animal, read-out: Total concentration BAL fluid) was 25.7 nM and the concentration at 1 h ([2]; BAL fluid, day-8, intranasal 10 µg/animal, read-out: Total concentration BAL fluid) was 160 nM. The concentration at 1 h ([2]; BAL fluid, day-8, intranasal 30 µg/animal, read-out: Total concentration BAL fluid) was 390 nM, the concentration at 1 h ([2]; BAL fluid, day-8, intranasal 50 µg/animal, read-out: Total concentration BAL fluid) was 779 nM and the concentration at 1 h ([2]; BAL fluid, day-8, intranasal 100 µg/animal, read-out: Total concentration BAL fluid) was 1320 nM. For the same molecule, the concentration at 1 h ([2]; lung, day-8, intranasal 1 µg/animal, read-out: Total concentration Lung) was 5480 nM, the concentration at 1 h ([2]; lung, day-8, intranasal 10 µg/animal, read-out: Total concentration Lung) was 53600 nM and the concentration at 1 h ([2]; lung, day-8, intranasal 30 µg/animal, read-out: Total concentration Lung) was 171000 nM. It also gave a concentration at 1 h ([2]; lung, day-8, intranasal 50 µg/animal, read-out: Total concentration Lung) of 379000 nM, a concentration at 1 h ([2]; lung, day-8, intranasal 100 µg/animal, read-out: Total concentration Lung) of 608000 nM and a Kp at 1 h ([2]; lung/plasma, CS-model mice, 7-day intranasal treatment, all tested doses (1 to 100 µg), read-out: concentration in lung as compared to the plasma) of over 1000. The concentration at 1 h ([2]; plasma, day-8, intranasal 1 µg/animal, read-out: Total concentration Plasma) was under 1.85 nM, the concentration at 1 h ([2]; plasma, day-8, intranasal 10 µg/animal, read-out: Total concentration Plasma) was under 1.85 nM and the concentration at 1 h ([2]; plasma, day-8, intranasal 30 µg/animal, read-out: Total concentration Plasma) was 20.6 nM. The concentration at 1 h ([2]; plasma, day-8, intranasal 50 µg/animal, read-out: Total concentration Plasma) was 33.2 nM and the concentration at 1 h ([2]; plasma, day-8, intranasal 100 µg/animal, read-out: Total concentration Plasma) was 84.7 nM.

From PMC9130233, “An inhibitor of RORγ for chronic pulmonary obstructive disease treatment” (Scientific Reports, 2022)
